Results taken from patent US20100267561A1, “HERBICIDAL PYRIDAZINONE DERIVATIVES” (priority 2007, published 2010).

Legend:
Test in all cases: Test B pre-/postemergence plant response
Format in all cases: in vivo
[1] = tested on: lambsquarters (Chenopodium album)
Source text: (§1) Seeds of plant species selected from blackgrass (Alopecurus myosuroides), downy bromegrass (Bromus tectorum), green foxtail (Setaria viridis), Italian ryegrass (Lolium multiflorum), wheat (Triticum aestivum), wild oat (Avena fatua), catchweed bedstraw (Galium aparine), bermudagrass (Cynodon dactylon), surinam grass (Brachiaria decumbens), cocklebur (Xanthium strumarium), corn (Zea mays), large crabgrass (Digitaria sanguinalis), woolly cupgrass (Eriochloa villosa), giant foxtail (Setaria faberii), goosegrass (Eleusine indica), johnsongrass (Sorghum halepense), kochia (Kochia scoparia), lambsquarters (Chenopodium album), morningglory (Ipomoea coccinea), eastern black (E.B.) nightshade (Solanum ptycanthum), yellow nutsedge (Cyperus esculentus), pigweed (Amaranthus retroflexus), common ragweed (Ambrosia elation), Russian thistle (Salsola iberica), soybean (Glycine max), common (oilseed) sunflower (Helianthus annuus), and velvetleaf (Abutilon theophrasti) were planted and treated preemergence with test chemicals formulated in a non-phytotoxic solvent mixture which included a surfactant.
(§2) At the same time, plants selected from these crop and weed species and also winter barley (Hordeum vulgare), canarygrass (Phalaris minor), chickweed (Stellaria media) and windgrass (Apera spica-venti) were treated with postemergence applications of some of the test chemicals formulated in the same manner. Plants ranged in height from 2 to 18 cm (1- to 4-leaf stage) for postemergence treatments.
(§3) Plant species in the flooded paddy test consisted of rice (Oryza sativa), umbrella sedge (Cyperus difformis), ducksalad (Heteranthera limosa) and barnyardgrass (Echinochloa crus-galli) grown to the 2-leaf stage for testing. At time of treatment, test pots were flooded to 3 cm above the soil surface, treated by application of test compounds directly to the paddy water, and then maintained at that water depth for the duration of the test. Treated plants and controls were maintained in a greenhouse for 13 to 15 days, after which time all species were compared to controls and visually evaluated. Plant response ratings, summarized in Table B, are based on a scale of 0 to 100 where 0 is no effect and 100 is complete control. A dash (-) response means no test result.

[2] = tested on: bermudagrass (Cynodon dactylon)
Source text: as §1, §2, §3

[3] = tested on: surinam grass (Brachiaria decumbens)
Source text: as §1, §2, §3

[4] = tested on: eastern black (E.B.) nightshade (Solanum ptycanthum); details: Preemergence
Source text: as §1, §2, §3

[5] = tested on: Italian ryegrass (Lolium multiflorum)
Source text: as §1, §2, §3

[6] = tested on: johnsongrass (Sorghum halepense)
Source text: as §1, §2, §3

[7] = tested on: common ragweed (Ambrosia elation)
Source text: as §1, §2, §3

[8] = tested on: blackgrass (Alopecurus myosuroides)
Source text: as §1, §2, §3

[9] = tested on: giant foxtail (Setaria faberii)
Source text: as §1, §2, §3

[10] = tested on: corn (Zea mays)
Source text: as §1, §2, §3

[11] = tested on: morningglory (Ipomoea coccinea)
Source text: as §1, §2, §3

[12] = tested on: wild oat (Avena fatua)
Source text: as §1, §2, §3

[13] = tested on: yellow nutsedge (Cyperus esculentus)
Source text: as §1, §2, §3

[14] = 8 g ai/ha, postemergence, 0-100 scale
[15] = 16 g ai/ha, postemergence, 0-100 scale
[16] = Postemergence, 31 g ai/ha, scale 0 to 100
[17] = Postemergence, 62 g ai/ha, scale 0 to 100, 0 no effect, 100 complete control
[18] = Preemergence, 8 g ai/ha, scale 0 to 100 (0 no effect, 100 complete control)
[19] = Preemergence, 31 g ai/ha, scale 0 to 100 (0 no effect, 100 complete control)
[20] = Preemergence, 62 g ai/ha, 0 to 100 scale, 0 no effect, 100 complete control
[21] = Preemergence, 16 g ai/ha, scale 0 to 100

COc1nn(C)c(=O)c(-n2nc(-c3ccc(Br)cc3)cc2C)c1O [Compound 82]
Lambsquarters plant response rating [1, 14]: 0 | Lambsquarters plant response rating [1, 15]: 0 | Plant response rating, Lambsquarters [1, 16]: 0 | Plant response rating, Lambsquarters [1, 17]: 0 | Lambsquarters plant response rating [1, 18]: 0 | Plant response rating, Lambsquarters [1, 19]: 100 | Plant response rating, Lambsquarters [1, 20]: 100 | Lambsquarters plant response rating [1, 21]: 0 | Bermudagrass plant response rating [2, 14]: 98 | Bermudagrass plant response rating [2, 15]: 100 | Plant response rating, Bermudagrass [2, 16]: 100 | Plant response rating, Bermudagrass [2, 17]: 100 | Bermudagrass plant response rating [2, 18]: 90 | Bermudagrass plant response rating ([2]; Preemergence, 16 g ai/ha, scale 0 to 100 (0 no effect, 100 complete control)): 100 | Plant response rating, Bermudagrass [2, 19]: 100 | Plant response rating, Bermudagrass [2, 20]: 100 | Surinam Grass plant response rating [3, 14]: 75 | Surinam Grass plant response rating [3, 15]: 95 | Plant response rating, Surinam Grass [3, 16]: 100 | Plant response rating, Surinam Grass [3, 17]: 100 | Surinam Grass plant response rating [3, 18]: 80 | Plant response rating, Surinam Grass [3, 19]: 95 | Plant response rating, Surinam Grass [3, 20]: 100 | Surinam Grass plant response rating [3, 21]: 85 | Nightshade, E. B. plant response rating ([4]; 8 g ai/ha, scale 0 to 100 (0 no effect, 100 complete control)): 0 | Plant response rating, Nightshade, E. B. ([4]; 31 g ai/ha, scale 0 to 100 (0 no effect, 100 complete control)): 0 | Plant response rating, Nightshade, E. B. ([4]; 62 g ai/ha, 0 to 100 scale, 0 no effect, 100 complete control): 0 | Nightshade, E. B. plant response rating ([4]; 16 g ai/ha, scale 0 to 100): 0 | Ryegrass, Italian plant response rating [5, 14]: 98 | Ryegrass, Italian plant response rating [5, 15]: 98 | Plant response rating, Ryegrass, Italian [5, 16]: 100 | Plant response rating, Ryegrass, Italian [5, 17]: 100 | Ryegrass, Italian plant response rating [5, 18]: 40 | Plant response rating, Ryegrass, Italian [5, 19]: 100 | Plant response rating, Ryegrass, Italian [5, 20]: 100 | Ryegrass, Italian plant response rating [5, 21]: 98 | Johnsongrass plant response rating [6, 14]: 100 | Johnsongrass plant response rating [6, 15]: 100 | Plant response rating, Johnsongrass [6, 16]: 100 | Plant response rating, Johnsongrass [6, 17]: 100 | Johnsongrass plant response rating [6, 18]: 70 | Plant response rating, Johnsongrass [6, 19]: 98 | Plant response rating, Johnsongrass [6, 20]: 100 | Johnsongrass plant response rating [6, 21]: 85 | Ragweed plant response rating [7, 14]: 20 | Ragweed plant response rating [7, 15]: 40 | Plant response rating, Ragweed [7, 16]: 65 | Plant response rating, Ragweed [7, 17]: 85 | Ragweed plant response rating [7, 18]: 0 | Plant response rating, Ragweed [7, 19]: 50 | Plant response rating, Ragweed [7, 20]: 80 | Ragweed plant response rating [7, 21]: 20 | Blackgrass plant response rating [8, 14]: 98 | Blackgrass plant response rating [8, 15]: 98 | Plant response rating, Blackgrass [8, 16]: 100 | Plant response rating, Blackgrass [8, 17]: 100 | Blackgrass plant response rating [8, 18]: 80 | Plant response rating, Blackgrass [8, 19]: 100 | Plant response rating, Blackgrass [8, 20]: 100 | Blackgrass plant response rating [8, 21]: 98 | Foxtail, Giant plant response rating [9, 14]: 95 | Foxtail, Giant plant response rating [9, 15]: 100 | Plant response rating, Foxtail, Giant [9, 16]: 100 | Plant response rating, Foxtail, Giant [9, 17]: 100 | Foxtail, Giant plant response rating [9, 18]: 98 | Plant response rating, Foxtail, Giant [9, 19]: 100 | Plant response rating, Foxtail, Giant [9, 20]: 100 | Foxtail, Giant plant response rating [9, 21]: 100 | Corn plant response rating [10, 14]: 40 | Corn plant response rating [10, 15]: 100 | Plant response rating, Corn [10, 16]: 100 | Plant response rating, Corn [10, 17]: 100 | Corn plant response rating [10, 18]: 95 | Plant response rating, Corn [10, 19]: 98 | Plant response rating, Corn [10, 20]: 98 | Corn plant response rating [10, 21]: 95 | Morningglory plant response rating [11, 14]: 0 | Morningglory plant response rating [11, 15]: 0 | Plant response rating, Morningglory [11, 16]: 0 | Plant response rating, Morningglory [11, 17]: 55 | Morningglory plant response rating [11, 18]: 0 | Plant response rating, Morningglory [11, 19]: 0 | Plant response rating, Morningglory [11, 20]: 25 | Morningglory plant response rating [11, 21]: 0 | Oat, Wild plant response rating [12, 14]: 95 | Oat, Wild plant response rating [12, 15]: 95 | Plant response rating, Oat, Wild [12, 16]: 95 | Plant response rating, Oat, Wild [12, 17]: 100 | Oat, Wild plant response rating [12, 18]: 0 | Plant response rating, Oat, Wild [12, 19]: 80 | Plant response rating, Oat, Wild [12, 20]: 80 | Oat, Wild plant response rating [12, 21]: 60 | Nutsedge, Yellow plant response rating [13, 14]: 0 | Nutsedge, Yellow plant response rating [13, 15]: 0 | Plant response rating, Nutsedge, Yellow [13, 16]: 0 | Plant response rating, Nutsedge, Yellow [13, 17]: 0 | Nutsedge, Yellow plant response rating [13, 18]: 0 | Plant response rating, Nutsedge, Yellow [13, 19]: 0 | Plant response rating, Nutsedge, Yellow [13, 20]: 45 | Nutsedge, Yellow plant response rating [13, 21]: 0
